Reference: publication PMC11555526, “Development of 2-Aminoadenine-Based Proteolysis-Targeting Chimeras (PROTACs) as Novel Potent Degraders of Monopolar Spindle 1 and Aurora Kinases” (ACS Pharmacology & Translational Science, 2024)
Read-outs that look alike come from different tables or passages of the source.

Columns and labels:
[1] = test system: MV4-11 cells (naive); assay: alamarBlue cell viability assay; type: cell-based, human; conditions: 72 h treatment, MV4-11 cells (naive); for EC50: read-out: EC50 (concentration that decreases cell viability by 50%)
Experimental: Finally, to study the effect of the compounds on cancer cell survival, MV4-11 cells were treated with various concentrations of the chimeras and the cell viability was assessed after 72 h. […] As opposed to the parent inhibitor MPS1-IN-3, its derivatives except 40 were not cytotoxic (Figure S7B, Table 5). […] In addition, most of the SF1-based derivatives affected the viability of MV4-11 cells in nanomolar concentrations (Table 5).
For the alamarBlue cell viability assay, cells were seeded in 96-well plates and treated with indicated concentrations of the compounds or vehicle. A few hours before the experimental end point (72 h, unless otherwise stated), the cells were incubated with the alamarBlue reagent. Finally, fluorescence (excitation: 550 nm and emission: 600 nm) or absorbance (570 nm with reference at 600 nm) was measured on a Tecan Spark Multiplate reader (Tecan).

[2] = target: T1, AURKB (MV4-11^AURKB-HiBiT cells) (Homo sapiens, UniProt Q96GD4); assay: HiBiT assay, AURKB degradation; type: cell-based; design: key to Dmax (maximal degradation) AURKB: compounds with degradation less than 15% reported as “inactive”; conditions: 6 h treatment; for DC50: read-out: DC50 (half-maximal degradation concentration) AURKB; for Dmax: read-out: Dmax (maximal degradation) AURKB
T1 construct: expressed in transfected cells; host or cells: MV4-11, lentiviral transduction (pRRL-PGK vector)
Experimental: (§1) The effects of the synthesized compounds on AURKA, AURKB, and TTK mitotic kinases were then assessed in cellular systems. For this, HiBiT cell lines were generated for all three mitotic kinases. A small 11 amino acid peptide fragment of luciferase (HiBiT) was fused to the coding sequence of the proteins and stably transduced in the MV4-11 cell line (MV4-11^AURKA-HiBiT, MV4-11^AURKB-HiBiT, and MV4-11^HiBiT-TTK).
(§2) The stable cell lines MV4-11^AURKA-HiBiT, MV4-11^AURKB-HiBiT, and MV4-11^HiBiT-TTK cells were generated by lentiviral infection. Lentivirus was produced using the respective HiBiT vector, plasmids psPAX2, and pMD2.G in HEK293 cells. The virus supernatant was filtered and MV4-11 cells were doubly infected with the supernatant. The cells were selected after 48 h of infection until the control cells were dead to get the stable cell line.
(§3) The cells stably expressing HiBiT-tagged protein were seeded into 96-well plates and treated with serial dilutions of compounds for the indicated time points. At the end point, the assay was performed using the Nano-Glo HiBiT Lytic Detection System (Promega) according to the manufacturer’s instruction. Luminescence was measured on a GloMax 96 Microplate Luminometer (Promega) or a Tecan Spark Multiplate reader (Tecan). DC50 was calculated using concentrations showing sigmoidal behavior with the dose–response (four parameters) equation in Prism (GraphPad).

[3] = target: T2, AURKA (MV4-11^AURKA-HiBiT cells) (Homo sapiens, UniProt O14965); assay: HiBiT assay, AURKA degradation; type: cell-based; design: key to Dmax (maximal degradation) AURKA: compounds with degradation less than 15% reported as “inactive”; conditions: 6 h treatment, MV4-11^AURKA-HiBiT cells; for DC50: read-out: DC50 (half-maximal degradation concentration) AURKA; for Dmax: read-out: Dmax (maximal degradation) AURKA
T2 construct: expressed in transfected cells; host or cells: MV4-11, lentiviral transduction
T2 sequence (O14965 1-403): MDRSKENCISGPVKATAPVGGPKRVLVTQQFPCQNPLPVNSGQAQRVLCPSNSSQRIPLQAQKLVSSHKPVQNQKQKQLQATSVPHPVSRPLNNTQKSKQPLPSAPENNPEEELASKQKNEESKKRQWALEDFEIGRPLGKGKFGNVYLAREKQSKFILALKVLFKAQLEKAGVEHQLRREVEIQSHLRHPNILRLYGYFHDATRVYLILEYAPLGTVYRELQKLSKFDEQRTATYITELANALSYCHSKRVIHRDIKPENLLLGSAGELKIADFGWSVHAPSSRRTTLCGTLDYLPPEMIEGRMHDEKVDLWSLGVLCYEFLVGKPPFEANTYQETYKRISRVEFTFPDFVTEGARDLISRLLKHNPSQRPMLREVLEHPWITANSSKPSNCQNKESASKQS
Experimental: as §1, §2, §3

[4] = target: T3, TTK (MV4-11^HiBiT-TTK cells) (Homo sapiens, UniProt P33981); assay: HiBiT assay, TTK degradation; type: cell-based; design: key to Dmax (maximal degradation) TTK: compounds with degradation less than 15% reported as “inactive”; conditions: 6 h treatment, MV4-11^HiBiT-TTK cells; for DC50: read-out: DC50 (half-maximal degradation concentration) TTK; for Dmax: read-out: Dmax (maximal degradation) TTK
T3 construct: expressed in transfected cells; host or cells: MV4-11, lentiviral transduction (pRRL-PGK-HiBiT entry vector)
T3 sequence (P33981 1-857): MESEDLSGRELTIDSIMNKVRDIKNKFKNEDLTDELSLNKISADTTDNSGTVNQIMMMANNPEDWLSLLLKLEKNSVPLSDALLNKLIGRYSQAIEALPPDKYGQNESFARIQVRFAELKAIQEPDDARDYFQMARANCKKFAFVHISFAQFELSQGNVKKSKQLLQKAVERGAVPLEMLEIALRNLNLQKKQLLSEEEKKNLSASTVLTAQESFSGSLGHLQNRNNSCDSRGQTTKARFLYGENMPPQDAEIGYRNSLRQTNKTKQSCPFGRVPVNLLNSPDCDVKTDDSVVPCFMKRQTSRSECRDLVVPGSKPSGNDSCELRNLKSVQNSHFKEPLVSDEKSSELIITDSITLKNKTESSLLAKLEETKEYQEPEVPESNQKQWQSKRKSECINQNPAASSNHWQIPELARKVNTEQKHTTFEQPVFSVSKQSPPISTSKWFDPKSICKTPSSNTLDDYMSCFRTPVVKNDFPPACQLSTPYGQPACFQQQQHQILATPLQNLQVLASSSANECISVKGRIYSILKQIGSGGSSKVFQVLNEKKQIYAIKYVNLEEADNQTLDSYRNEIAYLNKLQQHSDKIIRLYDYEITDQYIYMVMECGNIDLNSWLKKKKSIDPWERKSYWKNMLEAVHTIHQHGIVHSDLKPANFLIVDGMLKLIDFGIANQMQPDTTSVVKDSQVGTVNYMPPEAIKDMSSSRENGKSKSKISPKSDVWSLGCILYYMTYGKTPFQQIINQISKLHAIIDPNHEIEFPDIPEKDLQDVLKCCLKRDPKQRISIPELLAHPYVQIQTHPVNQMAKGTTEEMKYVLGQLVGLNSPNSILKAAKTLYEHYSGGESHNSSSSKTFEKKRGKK
Experimental: as §1, §2, §3

[5] = target: T4, AURKB (Homo sapiens, UniProt Q96GD4); assay: Immunoblot of AURKB in naive MV4-11 cells; type: cell-based; conditions: 6 h, 0.1 µM
T4 construct: endogenous in cells; host or cells: naive MV4-11
Experimental: The cells were treated with compounds or vehicle for indicated time points and lysed in RIPA lysis buffer (50 mM HEPES pH 7.9, 140 mM NaCl, 1 mM EDTA, 1% Triton X-100, 0.1% SDS, 0.1% sodium deoxycholate) containing protease and phosphatase inhibitors (Sigma) for 20 min at 4 °C. Cell lysates were cleared by centrifugation, and protein concentration was determined with bicinchoninic acid assay. Equal amounts of protein per sample were separated by Bis-Tris-PAGE and transferred to PVDF membranes (Millipore). The membranes were blocked with 5% (w/v) nonfat dry milk in TBS-T [20 mM Tris–HCl, pH 7.5, 150 mM NaCl, 0.1% (v/v) Tween-20] for 1 h at room temperature and incubated with primary antibody at 4 °C overnight. Visualization was carried out using horseradish peroxidase (HRP)-labeled secondary antibodies and detected using a chemiluminescent HRP substrate (Millipore) in LAS3000 or LAS4000 mini (Fujifilm). Vinculin, GAPDH, or B-actin were used as a loading control. The loading control was probed along with the target antibody by cutting the membrane. For targets with similar molecular weights, the samples were run in duplicate and probed with their respective loading controls, although only one control was shown in the figure for all targets. The signal was quantified using ImageJ or Image Studio Lite against the corresponding loading controls. Antibodies used in this study were as follows: Aurora A/AIK (Cell Signaling Technology, 3092), Aurora B (Bethyl Laboratories, A300–431A), TTK (Santa Cruz Biotechnology, sc-56968), GAPDH (Cell Signaling Technology, 2118), B-Actin (Sigma, A5441), and Vinculin (Sigma, V9131).
α GAPDH α Vinculin α B-Actin
Figure S2: Cellular degradation studies of SF1-based compounds. […]
Immunoblots of TTK and AURKB. Naive MV4-11 cells were treated with indicated concentration of 44 or 47 G)
(E), 18 (F), and 14 or 20 (G) for 6 h and compared with vehicle treated cells. […]
All HiBiT data are represented as a mean ±s.d. from n=2 replicates. […]

T1 sequence (Q96GD4 1-345 isoform Q96GD4-5): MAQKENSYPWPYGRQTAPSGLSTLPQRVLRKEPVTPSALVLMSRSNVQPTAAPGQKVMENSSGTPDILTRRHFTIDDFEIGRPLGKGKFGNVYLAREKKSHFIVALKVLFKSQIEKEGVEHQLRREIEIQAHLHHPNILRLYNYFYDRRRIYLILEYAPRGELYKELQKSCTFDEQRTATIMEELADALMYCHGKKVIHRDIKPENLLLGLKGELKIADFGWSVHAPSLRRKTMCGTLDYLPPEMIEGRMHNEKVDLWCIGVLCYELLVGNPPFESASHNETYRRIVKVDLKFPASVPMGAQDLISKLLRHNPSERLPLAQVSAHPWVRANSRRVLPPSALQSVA
T4 sequence (Q96GD4 whole entry): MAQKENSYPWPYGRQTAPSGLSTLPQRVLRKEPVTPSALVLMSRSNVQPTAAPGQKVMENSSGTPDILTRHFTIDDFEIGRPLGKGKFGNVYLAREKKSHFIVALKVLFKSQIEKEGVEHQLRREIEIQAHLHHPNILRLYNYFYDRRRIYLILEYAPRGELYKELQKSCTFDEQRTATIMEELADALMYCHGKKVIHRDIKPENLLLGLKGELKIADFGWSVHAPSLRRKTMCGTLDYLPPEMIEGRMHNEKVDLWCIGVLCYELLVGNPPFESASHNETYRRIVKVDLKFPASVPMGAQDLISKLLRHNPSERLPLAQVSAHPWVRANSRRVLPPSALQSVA

| Compound | EC50 [1] | Dmax (maximal degradation) AURKB [2] | DC50 [2] | Dmax (maximal degradation) AURKA [3] | DC50 [3] | DC50 (half-maximal degradation concentration) TTK [4] | Dmax (maximal degradation) TTK [4] | EC50 (concentration that decreases cell viability by 50%) [1] | DC50 (half-maximal degradation concentration) AURKB [2] | DC50 (half-maximal degradation concentration) AURKA [3] | relative AURKB level (immunoblot quantification, vehicle = 1.00) [5] | DC50 [4] | EC50 ([1]; Homo sapiens) | Dmax [2] | Dmax [3] | Dmax [4] |
| --- | --- | --- | --- | --- | --- | --- | --- | --- | --- | --- | --- | --- | --- | --- | --- | --- |
| Cc1ncsc1-c1ccc(CNC(=O)[C@@H]2C[C@@H](O)CN2C(=O)[C@@H](NC(=O)CCCC(=O)NCC(=O)N2CCN(c3ccc(Nc4nc(Nc5ccccc5S(=O)(=O)C(C)C)c5nc[nH]c5n4)cc3)CC2)C(C)(C)C)cc1 [Compound 46] | 1980 nM | 29.40% | 466 nM | 57.90% | 772 nM | – (compounds with degradation less than 25% were not calculated and reported as “–”) | inactive | – | – | – | – | – | – | – | – | – |
| Cc1ncsc1-c1ccc(CNC(=O)[C@@H]2C[C@@H](O)CN2C(=O)[C@@H](NC(=O)CCC(=O)NCC(=O)N2CCN(c3ccc(Nc4nc(Nc5ccccc5S(=O)(=O)C(C)C)c5nc[nH]c5n4)cc3)CC2)C(C)(C)C)cc1 [Compound 47] | – | 20.20% | – | 21.70% | – | – (compounds with degradation less than 25% were not calculated and reported as “–”) | inactive | — (compounds with decrease of cell viability less than 50% were not calculated and reported as “—”) | – (compounds with degradation less than 25% were not calculated and reported as “–”) | – (compounds with degradation less than 25% were not calculated and reported as “–”) | 1.00 | – | – | – | – | – |
| Cc1ncsc1-c1ccc(CNC(=O)[C@@H]2C[C@H](O)CN2C(=O)[C@@H](NC(=O)COCCOCC(=O)N2CCN(c3ccc(Nc4nc(Nc5ccccc5S(=O)(=O)C(C)C)c5nc[nH]c5n4)cc3)CC2)C(C)(C)C)cc1 [Compound 51] | 421 nM | 44.00% | 1160 nM | inactive | – | – | 73.95% | – | – | – (compounds with degradation less than 25% were not calculated and reported as “–”) | – | 993 nM | – | – | – | – |
| Cc1ncsc1-c1ccc(CNC(=O)[C@@H]2C[C@@H](O)CN2C(=O)[C@@H](NC(=O)CCC(=O)NCCNC(=O)CCC(=O)N2CCN(c3ccc(Nc4nc(NC5CCCCC5)c5nc[nH]c5n4)cc3)CC2)C(C)(C)C)cc1 [Compound 55] | 6910 nM | inactive | – | 28.30% | 9840 nM | – | 28.40% | – | – (compounds with degradation less than 25% were not calculated and reported as “–”) | – | – | 5650 nM | – | – | – | – |
| Cc1ncsc1-c1ccc(CNC(=O)[C@@H]2C[C@@H](O)CN2C(=O)[C@@H](NC(=O)CCC(=O)NCCCNC(=O)CCC(=O)N2CCN(c3ccc(Nc4nc(NC5CCCCC5)c5nc[nH]c5n4)cc3)CC2)C(C)(C)C)cc1 [Compound 56] | 6820 nM | 29.10% | 2560 nM | 39.50% | 6500 nM | – | 34.20% | – | – | – | – | 1890 nM | – | – | – | – |
| CC(C)S(=O)(=O)c1ccccc1Nc1nc(Nc2ccc(N3CCNCC3)cc2)nc2[nH]cnc12 [SF1] | – | – | 993 nM | – | 274 nM | – | – | – | – | – | – | 1270 nM | 28 nM | 70.2% | 61.9% | 88.8% |
| COc1cc(N2CCNCC2)ccc1Nc1nc(Nc2ccccc2S(=O)(=O)C(C)C)c2nc[nH]c2n1 [SF2] | – | – | 4860 nM | – | 1930 nM | – | – | – | – | – | – | 1750 nM | 2060 nM | 40.9% | 40.1% | 29.6% |
| c1nc2c(NC3CCCCC3)nc(Nc3ccc(N4CCNCC4)cc3)nc2[nH]1 [azareversine, reference compound] | – | – | 79.3 nM | – | 99.5 nM | – | – | – | – | – | – | 118 nM | 123 nM | 44.5% | 52.6% | 47.7% |
